Results on 44 molecules are retold here after paper PMC10375536, “Discovery of High-Affinity Amyloid Ligands Using a Ligand-Based Virtual Screening Pipeline” (Journal of the American Chemical Society, 2023).

Molecules are shown by their SMILES. Read-outs that look alike come from different tables or passages of the source.

Test [1] has as its target Aβ(1-42). Particulars: cited from earlier work.
The target of test [2] is Aβ(1-42). As to conditions: cited from earlier work. The source holds these as a separate data set.
The target in test [3] is T1, Aβ(1–42) fibrils (Homo sapiens, UniProt P05067).
T1 construct: Monomeric Aβ(1-42) (1 mg: Rockland Immunochemicals, Limerick, PA, Lot #31541); purchased Rockland Immunochemicals, Limerick, PA Lot #31541 (a lot number; no catalogue number given)
T1 sequence (P05067 672-713 limits assumed): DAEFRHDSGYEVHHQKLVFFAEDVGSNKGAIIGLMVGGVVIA
Briefly: Thioflavin T (ThT) fluorescence competition assay. In kind it is binding. As to conditions: for ThT displacement in competition screen: Aβ(1–42) fibrils (250 nM); for ThT displacement in competition screen / Kd: ThT (1.0 μM), 1× PBS pH 7.4, 25 °C; for Kd: Aβ(1–42) fibrils (500 nM).

Setting [4] is: against [3H]BF-227, ref 10.1177/1536012118796297.
The mark [5] stands for this setting: against [125I]BF-180, ref 10.1523/JNEUROSCI.4456-03.2004.
Where [6] appears, read: against [125I]BF-180, ref 10.1385/JMN:24:2:247.
[7] abbreviates: against [125I]BF-180, ref 10.1523/JNEUROSCI.1738-05.2005.
Setting [8] is: against [125I]IMSB, ref 10.1016/j.bmcl.2011.08.003.
Setting [9] is: against [125I]IMSB, ref 10.1021/jm010045q.
Where [10] appears, read: average of fits from at least three independent experiments, read-out: Kd/nM.
Where [11] appears, read: read-out: –log(Kd/M) (converted).
The mark [12] stands for this setting: direct binding, ref 10.1007/s00259-012-2261-2.
[13] abbreviates: direct binding, ref 10.1021/jm010045q.

Take `COCCOCCOCCOC(=O)/C(C#N)=C/c1ccc2cc(N3CCCCC3)ccc2c1` [ANCA-11]: the Kd in test [1] (direct binding, ref 10.1021/cn200018v) was 1400 nM.
The term Ki denotes the equilibrium dissociation constant of an inhibitor or competing ligand from its target. As for `CNc1ccc(/C=C/c2ccc(OCCOCCOCCF)nc2)cc1` [AV-45, Florbetapir], the Ki in test [2] (setting [4]) is 12 nM.
With `Cc1cc(/C=C/c2ccc(N(C)C)cc2)n2c1C=C1C=CC=[N+]1[B-]2(F)F` [BAP-1], the Kd in test [1] (direct binding, ref 10.1021/cn3000058) was 44.1 nM.
With `CCN(CC)c1ccc(/C=C/c2nc3ccccc3o2)cc1` [BF-125], the Ki in test [2] (setting [5]) is 4.9 nM.
Consider `Nc1ccc(/C=C/c2nc3cc(F)ccc3o2)cc1` [BF-140], for which, in test [2] (setting [6]), the Ki was 2.1 nM.
For `CNc1ccc(/C=C/c2nc3cc(F)ccc3o2)cc1` [BF-145], in test [2] (setting [6]), the Ki was 4.5 nM.
As to `CNc1ccc(-c2ccc3ccccc3n2)cc1` [BF-158], the Ki in test [2] (setting [7]) was more than 5000 nM.
With `CNc1ccc(/C=C/c2nc3ccc(OCCF)cc3o2)cc1` [BF-168], the Ki in test [2] (setting [5]) is 6.4 nM.
Regarding `Nc1ccc(-c2ccc3ccccc3n2)cc1` [BF-170], in test [2] (setting [7]), the Ki is more than 5000 nM.
For the molecule `CNc1ccc(/C=C/c2nc3cc(I)ccc3o2)cc1` [BF-180], in test [1] (direct binding, ref 10.1523/JNEUROSCI.4456-03.2004), the Kd was 10.6 nM.
Turning to `CN(C)c1ncc(/C=C/c2nc3ccc(OCCF)cc3o2)s1` [BF-227], the Ki in test [2] (setting [4]) was 12 nM; in test [2] (against [125I]BF-180, ref 10.2967/jnumed.106.037556) it was 4.3 nM. Further, the Kd is 15.7 nM in test [1] (direct binding, ref 10.1177/1536012118796297); 1.72 nM in test [1] (two-site model, Site 1, ref 10.1007/s00259-012-2261-2); 1.31 nM in test [1] (two-site model, Site 1, ref 10.1016/j.ejphar.2009.06.042); 0.82 nM in test [1] (two-site model, Site 1, ref 10.1021/acs.molpharmaceut.8b00229); 56.1 nM in test [1] (two-site model, Site 2, ref 10.1007/s00259-012-2261-2); 80 nM in test [1] (two-site model, Site 2, ref 10.1016/j.ejphar.2009.06.042). In addition, the Kd in test [1] (two-site model, Site 2, ref 10.1021/acs.molpharmaceut.8b00229) is 125 nM.
On to `O=C(O)c1cc(/N=N/c2ccc(-c3ccc(/N=N/c4ccc(O)c(C(=O)O)c4)cc3)cc2)ccc1O` [CG], for which the values for the inhibitory constant (Ki) in test [2] (setting [8]) and in test [2] (setting [9]) were 0.43 nM and 0.4 nM, respectively.
For `Oc1c(I)cc(Cl)c2cccnc12` [CQ], in test [1] (direct binding, ref 10.1016/j.bios.2017.06.030), the Kd is 86 nM.
Take `C#CCN(C)CCCOc1ccc(Cl)cc1Cl` [Clorgyline]: in test [2] (setting [4]), the Ki is more than 9000 nM.
Turning to `COc1cc(/C=C/C(=O)CC(=O)/C=C/c2ccc(O)c(OC)c2)ccc1O` [Curcumin], the Ki in test [2] (setting [8]) is 3.57 nM.
Regarding `CN(CCCCc1ccccc1)C(=O)Nc1ccc2c(c1)OCC(=O)N2C` [E163], in test [3], the “ThT displacement in competition screen” value is given as “displaced the greatest quantity of ThT”. Besides, the Kd was 200 ± 100 nM in test [3] (setting [10]) and 158 nM in test [3] (setting [11]).
In the same order, the values of `Cc1ccc(C)c2c(C)c(C(=O)N3CCCc4c(OCC(N)=O)cccc43)oc12` [E197] are “displaced the greatest quantity of ThT”, 600 ± 300 nM and 501 nM.
`CCOc1ccc(CCN(C)C(=O)Nc2ccc3c(c2)CCC(=O)N3C)cc1` [E363]: the “ThT displacement in competition screen” value in test [3] is listed as “displaced the greatest quantity of ThT”. Besides, the figures for the Kd in test [3] (setting [10]) and in test [3] (setting [11]) were 20 ± 10 nM and 25.1 nM, respectively.
On to `CCOc1ccccc1OCC(=O)Nc1ccc(-c2ncc3n2CCCC3)cc1` [E570], for which, in test [3], the “ThT displacement in competition screen” value was “displaced the greatest quantity of ThT”. Further, the Kd in test [3] (setting [10]) was 20 ± 10 nM; in test [3] (setting [11]) it was 25.1 nM. In addition, the “bound ThT displaced” value in test [3] (titration into Aβ(1–42) fibrils (500 nM) and ThT (1.0 μM)) is “about half”.
`COc1cc(F)c(C(C)NC(=O)NCCN2c3ccccc3CC2C)cc1OC` (stereo not shown) [E704]: the “ThT displacement in competition screen” value in test [3] is “displaced the greatest quantity of ThT”. In test [3] (setting [10]), the Kd amounted to 56 ± 6 nM.
Consider `CC(=C(C#N)C#N)c1ccc2cc(N(C)CCF)ccc2c1` [FDDNP], for which the Kd in test [1] (setting [12]) was 5.52 nM.
`CN(C)c1ccc(/N=N/c2nc3ccc(OCCOCCOCCF)cc3s2)cc1` [FPPDB]: in test [2] (against ThS, ref 10.1021/ml200230e), the Ki was 20 nM.
Take `CNc1ccc(-c2cc3cc(O)ccc3o2)c(F)n1` [Flutafuranol]: in test [2] (setting [4]), the Ki is 42 nM.
For `CNc1ccc(-c2nc3ccc(O)cc3s2)cc1F` [Flutemetamol], in test [2] (setting [4]), the Ki was 65 nM.
As to `Cc1cc(-c2ccc(/N=N/c3ccc4c(S(=O)(=O)O)cc(S(=O)(=O)O)c(N)c4c3O)c(C)c2)ccc1/N=N/c1ccc2c(S(=O)(=O)O)cc(S(=O)(=O)O)c(N)c2c1O` [Honson2b (Evan's blue), Evan's blue], in test [2] (against ThS, ref 10.1016/j.nbd.2007.07.018), the Ki is 180 nM.
For the molecule `CN(C)c1ccc(-c2ccc3cc(-c4nc5ccccc5s4)c(=N)oc3c2)cc1` [ICTAD-1], the Kd in test [1] (direct binding, ref 10.1039/d0sc02060e) was 3780 nM.
Regarding `COc1ccc(C=Cc2ccc(C=Cc3ccc(OC)c(C(=O)O)c3)c(I)c2)cc1C(=O)O` [IMSB], the inhibition constant Ki in test [2] (setting [9]) is 0.8 nM. Besides, the Kd in test [1] (direct binding, ref 10.1021/ja0167147) is 0.73 nM.
Turning to `Cc1c(OCC(F)(F)F)ccnc1C[S+]([O-])c1nc2ccccc2[nH]1` (stereo not shown) [LNS], the Kd in test [1] (direct binding, ref 10.1021/cn500103u) was 11 nM.
Take `CC(C)CC1=[O+][B-](F)(F)OC(/C=C/c2ccc3cc(N(C)C)ccc3c2)=C1` [NAP-OB]: the Kd in test [1] (direct binding, ref 10.1016/j.bioactmat.2021.10.047) was 0.62 nM.
On to `CN(C)c1ccc(/C=C/c2nc3ccc(I)cc3[nH]2)cc1` [SBIM-3], for which, in test [1] (direct binding, ref 10.1016/j.bmc.2013.02.054), the Kd is 820 nM.
In the case of `COCCOCCn1c2ccccc2c2cc(/C=C/c3cc[n+](C)c4ccccc34)ccc21` [SLM], in test [1] (direct binding, ref 10.1021/acsomega.8b00475), the Kd is 11400 nM.
Turning to `CN(C)c1ccc(/C=C/c2ccc3ccc(OCCF)cc3n2)cc1` [SQ3], the Ki in test [2] (against [125I]ISQ, ref 10.1021/acsmedchemlett.2c00279) is 230 nM.
On to `Nc1ccc(-c2ccc3cc(OCCF)ccc3n2)cc1` [THK-523], for which the Kd in test [1] (setting [12]) was 30.3 nM; in test [1] (direct binding, ref 10.1093/brain/awr038) it was 20.7 nM.
As to `CN(C)c1ccc(-c2ccc3cc(OCC(O)CF)ccc3n2)cc1` (stereo not shown) [THK-5105], in test [1] (direct binding, ref 10.2967/jnumed.112.117341), the Kd was 35.9 nM.
As for `CN(C)c1ccc(-c2nc3ccc(I)cc3s2)cc1` [TZDM], the Ki in test [2] (setting [9]) is more than 5000 nM. In addition, in test [1] (setting [13]), the Kd was 0.14 nM.
With `Cc1ccc2c(c1)sc(-c1ccc(N(C)C)cc1)[n+]2C` [ThT, Thioflavin T], in test [2] (setting [9]), the Ki is more than 4000 nM. The Kd is 665 nM in test [1] (direct binding, ref 10.1002/chem.201800501); 2560 nM in test [1] (direct binding, ref 10.1016/j.bmc.2011.09.065); 117 nM in test [1] (direct binding, ref 10.1021/acs.analchem.2c02532); 32 nM in test [1] (direct binding, ref 10.1021/acs.jmedchem.5b00571); 1940 nM in test [1] (direct binding, ref 10.1021/acschemneuro.6b00380); 430 nM in test [1] (direct binding, ref 10.1021/acschemneuro.6b00450).
For `CC1(C)C(/C=C/C2=C(c3ccc(CCC(=O)O)cc3)C(=C/C=C3/N(CCC[N+](C)(C)C)c4ccc(S(=O)(=O)O)cc4C3(C)C)/CCC2)=[N+](CCC[N+](C)(C)C)c2ccc(S(=O)(=O)O)cc21` [ZW800-1C], the Kd in test [1] (direct binding, ref 10.1038/s41551-023-01003-7) is 78.9 nM.
As to `CN(C)c1ccc(-c2cc(-c3ccnc(Br)c3)[nH]n2)cc1` [[11C]MODAG-001], in test [1] (direct binding, ref 10.1007/s00259-020-05133-x), the Kd was 20 nM.
As to `CN(C)c1ccc(/N=N/c2nc3ccc(OCCOCCOCCF)cc3s2)cc1` [[18F]FPPDB], the Kd in test [1] (direct binding, ref 10.1021/ml200230e) was 45.4 nM.
On to `CN(C)c1ccc(C=CC(=O)c2ccc(I)cc2)cc1` [[125I]DMIC], for which the Kd in test [1] (direct binding, ref 10.1016/j.bmc.2007.07.052) was 4.2 nM.
On to `COc1ccc(/C=C/c2ccc(/C=C/c3ccc(OC)c(C(=O)O)c3)c(I)c2)cc1C(=O)O` [[125I]IMSB], for which the Kd in test [1] (setting [13]) is 0.73 nM.
In the case of `O=[N+]([O-])c1ccc2c(c1)Sc1cc(OC/C=C/I)ccc1N2` [[125I]SIL23], the Kd in test [1] (direct binding, ref 10.1371/journal.pone.0055031) is 635 nM.
For `CN(C)c1ccc(-c2nc3ccc(I)cc3s2)cc1` [[125I]TZDM], the Kd in test [1] (direct binding, ref 10.1016/j.bmc.2011.03.029) is 0.45 nM; in test [1] (direct binding, ref 10.5012/bkcs.2008.29.9.1765), 0.13 nM.
For `O=C(O)c1cc(C=Cc2ccc(C=Cc3ccc(O)c(C(=O)O)c3)c(I)c2)ccc1O` [[125]ISB], the Kd in test [1] (setting [13]) was 0.15 nM.
